Reference: patent US10694742B2, “Composition comprising a pesticide and a hydroxyalkyl polyoxylene glycol ether” (BASF SE, priority 2014, dated 2020)

Experiments:
Septoria and Brown rust = test: Field trial winter wheat, yield; assay type: in vivo, winter wheat (var. Akteur); conditions: for Yield Winter Wheat, Relative Yield (%): half rate (N/2) Epoxiconazole SC 125 applied twice at BBCH 32 and 51, adjuvant 150 ml/ha in tank mix, comparative experiment = 100.0
Procedure: (§1) Field studies were conducted on a Parabraunerde soil in accordance with GEP in southern Germany on commercially planted winter wheat (var. Akteur) and winter rapeseed (var. Genie), respectively, exposed to a maritime climate. The standard experimental design was a randomized complete block with 4 replicates. There was no artificial infestation. Fungicides were applied at their label rate (N) and when mixed with adjuvants in the tank, at half rate (N/2). Dose rate of adjuvants was 150 ml/ha. Efficacy was measured by yield in dt/ha. Following the analysis of variance a mean separation test (Student-Newman-Keuls) was applied at a 5% significance level. All treatments were fully selective.
Spray volume was 200 l/ha applied with an AirMix 110-03 nozzle at a pressure of 1.9 bar. Plots were in 2.5 m by 7 m large. Epoxiconazole SC 125 with a dispersing additive (based on naphthalene sulfonic acid formaldehyde condensation product, sodium salt) was applied twice at the growth stages (BBCH) 32 and 51. During the course of trial, there was a natural infestation of Septoria and Brown rust. In each treatment, the dose rate of adjuvants was 150 ml/ha.
(§2) For a quantitative measure, the yield of each treatment was determined.

Wheat plants = test: Uptake rate of pesticide into sprayed wheat leaves (HPLC-MS/MS); assay type: in vivo, Triticum aestivum variety Melon; conditions: 125 g/ha epoxiconazole, 125 g/ha fluxapyroxad, 250 g/ha adjuvant compound; 200 l/ha; leaves sampled after 8 days
Excerpt: Wheat plants (Triticum aestivum variety Melon) were cultivated in the greenhouse for 6 weeks up to development stage BBCH 39. The plants were transferred to an automatic lab track sprayer and they were sprayed with 125 g/ha epoxiconazole, 125 g/ha fluxapyroxad, and 250 g/ha of the respective Compound 1-5 according to the following parameters:
Nozzle type: Air injector, ID 120 02 (Lechler, Germany)
Subsequently to spraying, the plants were cultivated again in the greenhouse under ambient conditions. After 8 days samples of 10-15 treated leaves were cut off and weighed.
Leaves were cut into small pieces, transferred into glass bottles and washed with 50% methanol in demineralized water as washing medium for 5 min. Then, the washing medium was separated from the leaves. The leaves were washed again with washing medium for 5 min. […]
Finally, the leaves were transferred to a vial containing the extraction medium (75% methanol, 20% water and 5% HCl) and homogenized using a Polytron PT 6100 dispersing unit (Kinematica, CH) for 2 min. […] The residue was solubilized in methanol/water 50:50 and analyzed by HPLC-MS/MS.
An Agilent 1100 series HPLC coupled to an Applied Biosystems API 3000 triple quadrupole mass spectrometer, equipped with an electro spray ionization source, was used. […] According to the recovery rate the measured sample values were corrected. […]

Puccinia triticina = test: Greenhouse biological activity on infected wheat; assay type: in vivo, Puccinia triticina on wheat (species Kanzler); conditions: sprayed three days after infection, rated after ten days, three replicates
Procedure: The biological activity was assessed in a greenhouse on wheat (species “Kanzler”), which was infected with Puccinia triticina at two leafes stage and incubated for three days at high humidity. The plants were sprayed (spray volume 200 l/ha) with a composition comprising 50 ppm (10 g/ha or 2.5 g/ha dose rate) epoxiconazole and 100 ppm (20 g/ha) of the respective Compounds 1-7. In the comparative example no adjuvant was added. The plants were further cultivated for ten days at 20-24° C. and 60-90% relative humidity. Finally, the percentage of the infected leaf area (pustules) was visually inspected. Each value was based on three replicates.

Sclerotinia sp. = test: Field trial rapeseed, yield; assay type: in vivo, winter rapeseed (var. Genie); conditions: half rate (N/2) Cantus Gold SC applied at BBCH 51; adjuvant 150 ml/ha in tank mix; comparative experiment = 100.0
Procedure: as §1
Spray volume was 250 l/ha applied with an AirMix 110-03 nozzle at a pressure of 2.1 bar. Plots were in 3 m by 7 m large. Cantus® Gold SC (200 g/l Boscalid and 200 g/l Dimoxystrobin with a dispersing additive based on benzenesulfonic acid, hydroxy-, polymer with formaldehyde, phenol and urea, sodium salt) was applied at the growth stage (BBCH) 51 of rapeseed on a Parabraunerde soil. During the course of trial, there was a natural infestation of Sclerotinia sp. In each treatment, the dose rate of adjuvants was 150 ml/ha.
as §2

SMILES | Yield Winter Wheat, Relative Yield (%) (Septoria and Brown rust) | Epoxiconazole Uptake Rate [%] (Wheat plants) | Infected leaf area 2,5 g/ha dose rate (Puccinia triticina; epoxiconazole 2,5 g/ha + 100 ppm (20 g/ha) adjuvant compound) [%] | Infected leaf area 10 g/ha dose rate (Puccinia triticina; epoxiconazole 10 g/ha + 100 ppm (20 g/ha) adjuvant compound) [%] | Improvement of yield of the half rate (N/2) compared to N/2 alone, wheat (Septoria and Brown rust; N/2 epoxiconazole + adjuvant 150 ml/ha, Student-Newman-Keuls, 5% significance level) | Yield Rapeseed, Relative Yield (%) (Sclerotinia sp.)
Fc1ccc([C@]2(Cn3cncn3)O[C@H]2c2ccccc2Cl)cc1 (racemic) [epoxiconazole] | 103.5 | 19 | 78 | 48 |  | 
CCCCCCCCC(O)COCCOCCOCCOCCOCCOCCOCCOCCOCCOCC(CC)CCCC (stereo not shown) [Compound C] | 109.4 |  |  |  | significant improvements | 104.6
